From patent US8575360B2, “Derivatives of 6,7-dihydro-5H-imidazo[1,2-a]imidazole-3-carboxylic acid amides” (Boehringer Ingelheim International GmbH, priority 2009, dated 2013)

target: T1, LFA-1 (CD18/CD11a) binding to ICAM-1 (Homo sapiens, UniProt P05107+P20701); experiment: LFA-1/Biotin-sICAM-1 AlphaScreen assay: inhibition of LFA-1 binding to ICAM-1; details: 37° C. 90 minutes, highest compound concentration 1 μM
T1 construct: followed by purified LFA-1 (in buffer of 50 mM triethylamine, 150 mM NaCl, 1% beta octylglucoside)
From the text: Assay to Determine Inhibition of LFA-1 Binding to ICAM-1
This assay protocol is designed to study the direct antagonism, by a test compound, of the interaction of ICAM-1 with the Leukointegrin CD18/CD11a (LFA-1).
The LFA-1/Biotin-sICAM-1 molecular assay measures the ability of test compounds to inhibit binding of LFA-1 to Biotinylated-sICAM using AlphaScreen technology (Ref: Wilson, J, Rossi, C P, Carboni, S, Fremaux, C, Perrin, D, Soto, C, Kosco-Vilbois, M, and Scheer, A: A Homogeneous 384-Well High-Throughput Binding Assay for a TNF Receptor Using Alphascreen Technology. J Biomol Screen 2003; 8:522-532) that uses TS2/4(anti-LFA-1)-custom conjugated AlphaLisa acceptor beads and streptavidin-coated donor beads from PerkinElmer. The assay was performed in white OptiPlates-384 in a volume of 60 μL using assay buffer (Dulbecco's PBS containing calcium and magnesium, 2 mM MgCl2, 0.1 mM PMSF, 0.1% BSA, pH 7.1). To each well, Biotin-sICAM was added followed by purified LFA-1 (in buffer of 50 mM triethylamine, 150 mM NaCl, 1% beta octylglucoside, 2 mM MgCl2 neutralized to pH with 1M Tris-HCl, pH 7.5). For compound testing, compound was added in 5 uL to the above in 25 uL. LFA-1 and Biotin-sICAM-1 were used at concentrations that would yield a signal to background ratio of 8-10. The highest concentration of compound was 1 μM in 1% DMSO. Positive controls were wells without compound containing LFA-1, while blanks were wells without both compound and LFA-1. Plates were mixed and incubated at 37° C. for 90 minutes. This was followed by addition of 15 μL/well TS2/4-conjugated acceptor beads diluted in PBS containing 0.1% BSA for a final concentration of 10 μg/mL. The plates were mixed and incubated in the dark for 30 minutes at room temperature followed by addition of 15 μL/well streptavidin-coated donor beads diluted in PBS containing 0.1% BSA at a final concentration of 15 μg/mL. The plates were mixed and incubated in the dark for 60 minutes at room temperature and then read on an EnVision Multilabel Reader using AlphaScreen 384-well OptiPlate protocol.

T1 sequence (P20701 26-1170): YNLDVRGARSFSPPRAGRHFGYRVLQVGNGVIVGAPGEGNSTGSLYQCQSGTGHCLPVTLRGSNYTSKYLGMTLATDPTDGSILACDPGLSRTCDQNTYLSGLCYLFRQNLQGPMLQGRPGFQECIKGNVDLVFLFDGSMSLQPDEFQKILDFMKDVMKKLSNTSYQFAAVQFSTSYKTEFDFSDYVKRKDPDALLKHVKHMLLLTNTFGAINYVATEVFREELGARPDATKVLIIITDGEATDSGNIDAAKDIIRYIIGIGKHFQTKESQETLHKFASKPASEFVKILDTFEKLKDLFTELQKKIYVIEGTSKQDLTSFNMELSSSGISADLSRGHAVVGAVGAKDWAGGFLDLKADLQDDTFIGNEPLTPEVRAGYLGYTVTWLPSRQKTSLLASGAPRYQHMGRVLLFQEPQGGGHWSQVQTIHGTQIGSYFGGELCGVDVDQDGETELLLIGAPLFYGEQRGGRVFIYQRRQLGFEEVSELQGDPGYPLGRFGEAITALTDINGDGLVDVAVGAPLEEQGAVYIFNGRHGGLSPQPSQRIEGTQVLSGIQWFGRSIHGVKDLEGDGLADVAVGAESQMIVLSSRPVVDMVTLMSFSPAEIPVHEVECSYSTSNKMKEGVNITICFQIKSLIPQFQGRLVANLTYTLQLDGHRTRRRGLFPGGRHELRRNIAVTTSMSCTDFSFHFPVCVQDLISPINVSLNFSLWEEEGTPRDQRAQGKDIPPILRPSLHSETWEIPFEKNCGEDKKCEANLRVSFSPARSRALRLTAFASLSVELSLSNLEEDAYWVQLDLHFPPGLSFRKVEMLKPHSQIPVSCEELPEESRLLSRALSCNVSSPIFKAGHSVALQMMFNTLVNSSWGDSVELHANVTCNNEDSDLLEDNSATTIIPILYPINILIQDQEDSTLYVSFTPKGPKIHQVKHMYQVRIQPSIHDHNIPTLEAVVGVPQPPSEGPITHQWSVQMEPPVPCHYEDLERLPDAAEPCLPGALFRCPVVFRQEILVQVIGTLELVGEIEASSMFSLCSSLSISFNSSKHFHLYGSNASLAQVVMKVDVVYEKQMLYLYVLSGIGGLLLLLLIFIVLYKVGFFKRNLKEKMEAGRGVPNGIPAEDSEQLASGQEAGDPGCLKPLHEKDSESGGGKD
T1 sequence (P05107 23-769 partner): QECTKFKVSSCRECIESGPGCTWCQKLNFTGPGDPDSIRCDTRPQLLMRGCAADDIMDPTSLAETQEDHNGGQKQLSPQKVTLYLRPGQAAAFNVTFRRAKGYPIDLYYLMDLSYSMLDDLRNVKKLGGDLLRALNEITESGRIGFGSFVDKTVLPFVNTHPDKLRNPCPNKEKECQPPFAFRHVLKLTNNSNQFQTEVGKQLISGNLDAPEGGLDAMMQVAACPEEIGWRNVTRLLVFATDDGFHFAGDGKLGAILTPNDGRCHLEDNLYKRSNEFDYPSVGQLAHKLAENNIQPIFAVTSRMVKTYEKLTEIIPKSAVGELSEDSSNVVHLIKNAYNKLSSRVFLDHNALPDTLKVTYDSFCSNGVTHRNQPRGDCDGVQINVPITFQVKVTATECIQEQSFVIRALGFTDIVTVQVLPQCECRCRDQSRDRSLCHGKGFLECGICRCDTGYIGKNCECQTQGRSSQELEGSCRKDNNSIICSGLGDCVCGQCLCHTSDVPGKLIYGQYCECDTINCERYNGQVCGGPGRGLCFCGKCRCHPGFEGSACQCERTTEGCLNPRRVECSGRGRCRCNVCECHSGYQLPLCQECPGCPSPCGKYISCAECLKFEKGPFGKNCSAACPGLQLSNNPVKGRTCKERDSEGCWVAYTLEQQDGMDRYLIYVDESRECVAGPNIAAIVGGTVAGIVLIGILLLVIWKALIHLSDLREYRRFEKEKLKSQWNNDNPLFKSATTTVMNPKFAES

Q: How did the IC50 turn out when C[C@@]1(Cc2ccc(OC(F)(F)F)cc2)C(=O)N(c2cc(Cl)c(F)c(Cl)c2)c2ncc(C(=O)NC3(C(=O)NC4(c5ncc(-c6ccc(CO)nc6)cn5)CC4)CC3)n21 [Compound 110] was run?
A: The IC50 was 0.65 nM.

Q: Which IC50 does the source give for Cc1nn(C)cc1-c1cnc(C2(NC(=O)C3(NC(=O)c4cnc5n4[C@](C)(Cc4ccc(C#N)cc4)C(=O)N5c4cc(Cl)c(F)c(Cl)c4)CC3)CC2)nc1 [Compound 111] here?
A: Its IC50 is 1.6 nM.

Q: Which IC50 does the source give for Cc1ccc(-c2cnc(C3(NC(=O)C4(NC(=O)c5cnc6n5[C@](C)(Cc5ccc(C#N)cc5)C(=O)N6c5cc(Cl)c(F)c(Cl)c5)CC4)CC3)nc2)cn1 [Compound 112] here?
A: The IC50 was 0.54 nM.

Q: Which IC50 does the source give for C[C@@]1(Cc2ccc(C#N)cc2)C(=O)N(c2cc(Cl)c(F)c(Cl)c2)c2ncc(C(=O)NC3(C(=O)NC4(c5ccc(-c6cccc(S(N)(=O)=O)c6)cn5)CC4)CC3)n21 [Compound 115] here?
A: Its IC50 is 1.8 nM.

Q: Which IC50 does the source give for C[C@@H](NC(=O)C1(NC(=O)c2cnc3n2[C@](C)(Cc2ccc(OC(F)(F)F)cc2)C(=O)N3c2cc(Cl)c(F)c(Cl)c2)CC1)c1ccc(-c2ccc(CO)nc2)cn1 [Compound 116] here?
A: Its IC50 is 1.3 nM.

Q: How did the IC50 turn out when C[C@@H](NC(=O)[C@@H](NC(=O)c1cnc2n1[C@](C)(Cc1ccc(C#N)cc1)C(=O)N2c1cc(Cl)c(F)c(Cl)c1)[C@@H](C)O)c1ccc(-c2ccc(CO)nc2)cn1 [Compound 119] was run?
A: Its IC50 is 0.85 nM.

Q: Cc1nn(C)cc1-c1ccc(C(C)NC(=O)C(NC(=O)c2cnc3n2C(C)(Cc2ccc(C#N)cc2)C(=O)N3c2cc(Cl)c(F)c(Cl)c2)C(C)O)nc1 (centres unmarked) [Compound 121] was tested. Which IC50 did it give?
A: The IC50 was 1.1 nM.

Q: Cc1nn(C)cc1-c1ccc(C2(NC(=O)C3(NC(=O)c4cnc5n4[C@](C)(Cc4ccc(C#N)cc4)C(=O)N5c4cc(Cl)c(F)c(Cl)c4)CC3)CC2)nc1 [Compound 123] was tested. Which IC50 did it give?
A: The IC50 was 1.4 nM.

Q: For CC1(Cc2ccc(C#N)cc2)C(=O)N(c2cc(Cl)cc(Cl)c2)c2ncc(C(=O)NC3(C(=O)NC4(c5ccc(-c6cnoc6)cn5)CC4)CC3)n21 (centres unmarked) [Compound 127], which IC50 is on record?
A: Its IC50 is 0.34 nM.

Q: With C[C@@]1(Cc2ccc(C#N)cc2)C(=O)N(c2cc(Cl)cc(Cl)c2)c2ncc(C(=O)NC3(C(=O)NC4(c5ccc(-c6cn[nH]c6)cn5)CC4)CC3)n21 [Compound 129] as the compound, how does the IC50 read?
A: The IC50 was 0.22 nM.

Q: Which IC50 does the source give for C[C@@]1(Cc2ccc(C#N)cc2)C(=O)N(c2cc(Cl)cc(Cl)c2)c2ncc(C(=O)NC3(C(=O)NC4(c5ccc(-c6ccc(C(N)=O)cc6)cn5)CC4)CC3)n21 [Compound 131] here?
A: The IC50 was 0.99 nM.

Q: For C[C@@]1(Cc2ccc(C#N)cc2)C(=O)N(c2cc(Cl)cc(Cl)c2)c2ncc(C(=O)NC3(C(=O)NC4(c5ccc(-c6ccc(S(N)(=O)=O)cc6)cn5)CC4)CC3)n21 [Compound 132], which IC50 is on record?
A: The IC50 was 0.72 nM.

Q: C[C@@]1(Cc2ccc(C#N)cc2)C(=O)N(c2cc(Cl)cc(Cl)c2)c2ncc(C(=O)NC3(C(=O)NC4(c5ccc(-c6ccc(NS(C)(=O)=O)cc6)cn5)CC4)CC3)n21 [Compound 133] was tested. Which IC50 did it give?
A: The IC50 was 1.5 nM.

Q: Which IC50 does the source give for C[C@@]1(Cc2ccc(C#N)cc2)C(=O)N(c2cc(Cl)cc(Cl)c2)c2ncc(C(=O)NC3(C(=O)NC4(c5ccc(-c6ccc(S(C)(=O)=O)cc6)cn5)CC4)CC3)n21 [Compound 134] here?
A: The IC50 was 0.64 nM.

Q: For C[C@@]1(Cc2ccc(C#N)cc2)C(=O)N(c2cc(Cl)cc(Cl)c2)c2ncc(C(=O)NC3(C(=O)NC4(c5ccc(-c6ccc(O)cc6)cn5)CC4)CC3)n21 [Compound 135], which IC50 is on record?
A: Its IC50 is 0.64 nM.

Q: With C[C@@]1(Cc2ccc(C#N)cc2)C(=O)N(c2cc(Cl)cc(Cl)c2)c2ncc(C(=O)NC3(C(=O)NC4(c5ccc(-c6ccc(CO)cc6)cn5)CC4)CC3)n21 [Compound 136] as the compound, how does the IC50 read?
A: The IC50 was 0.56 nM.

Q: Which IC50 does the source give for C[C@@]1(Cc2ccc(C#N)cc2)C(=O)N(c2cc(Cl)cc(Cl)c2)c2ncc(C(=O)NC3(C(=O)NC4(c5ccc(-c6cccc(S(N)(=O)=O)c6)cn5)CC4)CC3)n21 [Compound 138] here?
A: Its IC50 is 0.64 nM.

Q: Which IC50 does the source give for C[C@@]1(Cc2ccc(C#N)cc2)C(=O)N(c2cc(Cl)cc(Cl)c2)c2ncc(C(=O)NC3(C(=O)NC4(c5ccc(-c6cccc(S(C)(=O)=O)c6)cn5)CC4)CC3)n21 [Compound 141] here?
A: The IC50 was 0.53 nM.

Q: Which IC50 does the source give for C[C@@]1(Cc2ccc(C#N)cc2)C(=O)N(c2cc(Cl)cc(Cl)c2)c2ncc(C(=O)NC3(C(=O)NC4(c5ccc(-c6cccc(O)c6)cn5)CC4)CC3)n21 [Compound 142] here?
A: The IC50 was 1.7 nM.

Q: Which IC50 does the source give for C[C@@]1(Cc2ccc(C#N)cc2)C(=O)N(c2cc(Cl)cc(Cl)c2)c2ncc(C(=O)NC3(C(=O)NC4(c5ccc(-c6cccc(CO)c6)cn5)CC4)CC3)n21 [Compound 143] here?
A: The IC50 was 1.9 nM.

Q: With C[C@@]1(Cc2ccc(C#N)cc2)C(=O)N(c2cc(Cl)cc(Cl)c2)c2ncc(C(=O)NC3(C(=O)NC4(c5ccc(-c6cnc7[nH]ccc7c6)cn5)CC4)CC3)n21 [Compound 146] as the compound, how does the IC50 read?
A: The IC50 was 1.6 nM.

Q: For Cn1cc(-c2ccc(C3(NC(=O)C4(NC(=O)c5cnc6n5[C@](C)(Cc5ccc(C#N)cc5)C(=O)N6c5cc(Cl)cc(Cl)c5)CC4)CC3)nc2)cn1 [Compound 149], which IC50 is on record?
A: The IC50 was 0.33 nM.

Q: With Cc1nn(C)cc1-c1ccc(C2(NC(=O)C3(NC(=O)c4cnc5n4[C@](C)(Cc4ccc(OC(F)(F)F)cc4)C(=O)N5c4cc(Cl)c(F)c(Cl)c4)CC3)CC2)cn1 [Compound 150] as the compound, how does the IC50 read?
A: The IC50 was 0.68 nM.

Q: For CC(O)C(NC(=O)c1cnc2n1C(C)(Cc1ccc(C#N)cc1)C(=O)N2c1cc(Cl)c(F)c(Cl)c1)C(=O)NC1(c2ccc(-c3cnn(C)c3)nc2)CC1 (centres unmarked) [Compound 152], which IC50 is on record?
A: The IC50 was 1.1 nM.

Q: For Cc1nn(C)cc1-c1ccc(C2(NC(=O)[C@H](CO)NC(=O)c3cnc4n3[C@](C)(Cc3ccc(C#N)cc3)C(=O)N4c3cc(Cl)c(F)c(Cl)c3)CC2)nc1 [Compound 154], which IC50 is on record?
A: The IC50 was 0.76 nM.

Q: How did the IC50 turn out when Cc1nn(C)cc1-c1ccc(C2(NC(=O)[C@@H](NC(=O)c3cnc4n3[C@](C)(Cc3ccc(C#N)cc3)C(=O)N4c3cc(Cl)c(F)c(Cl)c3)[C@@H](C)O)CC2)nc1 [Compound 155] was run?
A: Its IC50 is 0.56 nM.

Q: Which IC50 does the source give for Cc1n[nH]c(C)c1-c1ccc(C2(NC(=O)C3(NC(=O)c4cnc5n4[C@](C)(Cc4ccc(C#N)cc4)C(=O)N5c4cc(Cl)c(F)c(Cl)c4)CC3)CC2)nc1 [Compound 157] here?
A: Its IC50 is 0.91 nM.

Q: How did the IC50 turn out when C[C@@]1(Cc2ccc(C#N)cc2)C(=O)N(c2cc(Cl)c(F)c(Cl)c2)c2ncc(C(=O)NC3(C(=O)NC4(c5ccc(-c6ccc(S(C)(=O)=O)cc6)cn5)CC4)CC3)n21 [Compound 158] was run?
A: Its IC50 is 1.3 nM.

Q: With C[C@@H](NC(=O)C1(NC(=O)c2cnc3n2[C@](C)(Cc2ccc(C#N)cc2)C(=O)N3c2cc(Cl)c(F)c(Cl)c2)CC1)c1ccc(-c2ccc(CO)nc2)nc1 [Compound 160] as the compound, how does the IC50 read?
A: Its IC50 is 0.59 nM.
